Read-outs that look alike come from different tables or passages of the source.
Key:
[1] = Oral administration to fasted beagles with ascorbic, citric or tartaric acid, plasma drug disposition parameters (Experimental Example 3); type: in vivo; conditions: for AUC(0-t) at 6 h / Cmax / Tmax: dog, plasma, po, 3 mg/kg, n=4; for AUC(0-t) at 6 h: read-out: AUC (0-6 hr) mean ± SE; for Cmax: read-out: Cmax mean ± SE; for Tmax: read-out: Tmax mean ± SE (converted)
Description: Compound (IX) and ascorbic acid, citric acid or tartaric acid were weighed, pulverized thoroughly and mixed together in an agate mortar. The mixture was divided into portions and filled in gelatin capsules (No. 1 or No. 00) and the gap in each capsule was further filled with lactose to obtain a sample. Separately, compound (IX) was formulated into a powder of five-fold dilution with lactose and filled in capsules in a similar manner to that described above to obtain a control sample.
The dose of compound (IX) was adjusted to 3 mg/kg in all the cases, while that of ascorbic acid was adjusted to three levels, i.e. 3 mg/kg, 9 mg/kg and 15 mg/kg and that of each of citric acid and tartaric acid was adjusted to one level of 15 mg/kg.
(§1) (a) Administration and collection of blood sample
The capsule of compound (IX) was given to each of 4 beagles (average body weight 9.53 kg) together with 30 ml of water by oral administration after fasting overnight (14 hours). The experiment was conducted by the crossover administration method while the beagles were kept fasting.
An internal standard substance (IS 50 ng in 50 μl) was added to 1 ml of blood plasma. After extraction with 5 ml of ethyl acetate, the solvent was distilled off. 100 μl of a citrate buffer solution (pH 3.5) was added thereto to form a solution again, which was washed with 1 ml of diethyl ether. The lower layer was separated and 50 μl of methanol was added thereto. 50 to 100 μl thereof was injected into an instrument for high-performance liquid chromatography (HPLC) for determination. Separately, blood plasma containing known amounts of compound (IX) and IS was treated to prepare an addition/recovery calibration curve. The concentration was determined from the ratio of the peak height of compound (IX) to that of IS. The detection limit in this method was 0.2 ng/ml of plasma.
(§2) (c) HPLC determination conditions
A HPLC pump used was CCPD mfd. by Toyo Soda Mfg. Co., Ltd. 1.5 ml/min of a citrate buffer (pH 3.5)/methanol mixture 80:1 (V/V) was introduced therein. The sample was injected into the instrument with a WISP 710B auto-sampler mfd. by Waters at intervals of about 50 minutes. A reversed phase Nucleosil (trade name) 7C6H5 column (4.6×250 mm) with a prefilter was used as the analysis column. The detector used was an ECD-100 electrochemical detector mfd. by Acome. The voltage was +650 mV (against a SEC electrode).
The citrate buffer solution (pH 3.5) was prepared by dissolving 26.25 g of citric acid, 16.58 g of anhydrous sodium acetate, 12.25 g of sodium hydroxide, 0.8375 g of disodium ethylenediaminetetraacetate, 93.8 ml of glacial acetic acid and 35.9 ml of 60% perchloric acid in 2500 ml of distilled water.
The AUC value in the period of 0 to 6 hours was determined from each of these curves. The results are given in FIG. 6, which is a bar graph for the comparison of the AUC values of the respective samples.

[2] = Oral administration to fasted beagles with L-cysteine or L-aspartic acid, plasma drug disposition parameters (Experimental Example 4); type: in vivo; conditions: for AUC(0-t) at 8 h / Cmax / Tmax: dog, plasma, po, 3 mg/kg; for AUC(0-t) at 8 h: read-out: AUC (0-8 hr) mean ± SE; for Cmax: read-out: Cmax mean ± SE; for Tmax: read-out: Tmax mean ± SE
Description: A similar mixture to that described above was prepared except that L-cysteine was replaced by 350 mg of L-aspartic acid.
as §1
An internal standard substance (IS 20 ng in 200 μl) was added to 1 ml of blood plasma. After dilution with 2 ml of water, the aqueous solution was passed through a BONDELUTE (trade name) C18 column previously washed with 3 ml of methanol containing 0.1% of acetic acid and 9 ml of water. After further washing with 9 ml of water and 2 ml of acetonitrile, the sample was eluted with 1.2 ml of methanol containing 0.1% of perchloric acid. The solvent was distilled off and the residue was dissolved in 200 μl of a 0.1% acetic acid aqueous solution/methanol mixture (2/1, V/V). 50 to 100 μl thereof was injected into an instrument for HPLC for determination. Separately, blood plasma containing known amounts of compound (IX) and IS was treated to prepare an addition/recovery calibration curve. The concentration was determined from the ratio of the peak height of compound (IX) to that of IS. The detection limit in this method was 0.05 ng/ml of plasma.
as §2
A HPLC pump used was CCPD mfd. by Toyo Soda Mfg. Co., Ltd. 1.35 ml/min of an aqueous solution containing 0.1% of perchloric acid and 0.01% of a disodium ethylenediaminetetraacetate/methanol mixture 80:9 (V/V) was introduced therein. The sample was injected into the instrument with a WISP 710B auto-sampler mfd. by Waters at intervals of about 50 minutes. A reversed phase ODS-120 T column (4.6×250 mm) with a prefilter was used as the analysis column. The detector used was an ECD-100 electrochemical detector mfd. by Acome. The voltage was +650 mV (against a SEC electrode).

[3] = 3 mg/kg oral + ascorbic acid 3 mg/kg (1:1)
[4] = 3 mg/kg oral + ascorbic acid 9 mg/kg (1:3)
[5] = 3 mg/kg oral + ascorbic acid 15 mg/kg (1:5)
[6] = 3 mg/kg oral + citric acid 15 mg/kg (1:5)
[7] = 3 mg/kg oral + tartaric acid 15 mg/kg (1:5)
[8] = 3 mg/kg oral, no organic acid (control)
[9] = 3 mg/kg oral + L-aspartic acid 15 mg/kg, n=2
[10] = 3 mg/kg oral + L-cysteine 15 mg/kg, n=2
[11] = 3 mg/kg oral, none (control), n=4

Oc1ccc([C@@H]2CNC[C@H]2c2cccc(O)c2Cl)cc1O (relative stereo) [compound (IX)]
Addition effect ratio ([1]; 3 mg/kg oral + ascorbic acid 3 mg/kg (1:1), AUC ratio to no additive): 1.9 | Addition effect ratio ([1]; 3 mg/kg oral + ascorbic acid 9 mg/kg (1:3), AUC ratio to no additive): 4.8 | increase of AUC value vs no added acid ([1]; 3 mg/kg oral + ascorbic acid 15 mg/kg): 7 -fold | Addition effect ratio ([1]; 3 mg/kg oral + ascorbic acid 15 mg/kg (1:5), AUC ratio to no additive): 7.0 | Addition effect ratio ([1]; 3 mg/kg oral + citric acid 15 mg/kg (1:5), AUC ratio to no additive): 3.3 | Addition effect ratio ([1]; 3 mg/kg oral + tartaric acid 15 mg/kg (1:5), AUC ratio to no additive): 2.7 | Addition effect ratio ([1]; 3 mg/kg oral, no organic acid, base): 1.0 | AUC(0-t) at 6 h [1, 3]: 28.4 ± 6.5 ng·h/mL | Cmax [1, 3]: 33.8 ± 13.2 ng/mL | Tmax [1, 3]: 34 min | AUC(0-t) at 6 h [1, 4]: 72.6 ± 18.5 ng·h/mL | Cmax [1, 4]: 187 ± 91.7 ng/mL | Tmax [1, 4]: 43 min | AUC(0-t) at 6 h [1, 5]: 107 ± 14.6 ng·h/mL | Cmax [1, 5]: 139 ± 20.9 ng/mL | Tmax [1, 5]: 55 min | AUC(0-t) at 6 h [1, 6]: 50.7 ± 16.5 ng·h/mL | Cmax [1, 6]: 87.4 ± 30.2 ng/mL | Tmax [1, 6]: 29 min | AUC(0-t) at 6 h [1, 7]: 40.4 ± 7.8 ng·h/mL | Cmax [1, 7]: 61.5 ± 26.3 ng/mL | Tmax [1, 7]: 45 min | AUC(0-t) at 6 h [1, 8]: 15.2 ± 2.8 ng·h/mL | Cmax [1, 8]: 21 ± 5.3 ng/mL | Tmax [1, 8]: 44 min | increase of AUC value vs no added acid ([1]; with citric acid): 3.3 -fold | increase of AUC value vs no added acid ([1]; with tartaric acid): 2.7 -fold | Addition effect (AUC ratio) ([2]; 3 mg/kg oral + L-aspartic acid 15 mg/kg): 2.46 | Addition effect (AUC ratio) ([2]; 3 mg/kg oral + L-cysteine 15 mg/kg): 1.59 | Addition effect (AUC ratio) ([2]; 3 mg/kg oral, none (control)): 1.00 | effect relative to that obtained by adding tartaric acid ([2]; L-cysteine and L-aspartic acid): ~2.7 times | AUC(0-t) at 8 h [2, 9]: 37.5 ± 0.2 ng·h/mL | Cmax [2, 9]: 48.2 ± 2.5 ng/mL | Tmax [2, 9]: 45 ± 15 min | AUC(0-t) at 8 h [2, 10]: 24.4 ± 1 ng·h/mL | Cmax [2, 10]: 15.3 ± 2.7 ng/mL | Tmax [2, 10]: 70.2 ± 50.4 min | Cmax [2, 11]: 21 ± 5.3 ng/mL | Tmax [2, 11]: 43.8 ± 16.8 min | increase of AUC value ([2]; with L-aspartic acid): 2.46 -fold | increase of AUC value ([2]; with L-cysteine): 1.59 -fold

— patent US5292521A, “Solid oral preparation containing a pyrrolidine derivative with a catechol group” (priority 1990, dated 1994)
